We go through 1 compound from US20240336604A1 (THE UNITED STATES OF AMERICA, AS REPRESENTED BY THE …, priority 2021, published 2024).

A short description of data set [1]: Mouse plasma and brain pharmacokinetic study. The format is in vivo. Particulars: male CD1 mice, single 40 mg/kg i.p. As to the method:
Mouse Plasma and Brain Tissue Sampling: The pharmacokinetic study was conducted by CRO Pharmaron (Beijing, China). The levels of cmp 17 in mouse plasma and brain tissue samples were assessed as follows. A single IP dose (40 mg/kg) of cmp 17 was administered to male CD1 mice. The formulation consisted of NMP/Solutol/PEG-400/normal saline (v/v/v/v, 10:5:30:55). Plasma and brain samples were collected 0.5 h, 1 h, 2 h, 4 h and 8 h post dose. Brain samples were homogenized at a ratio of 1:3 with PBS (W/V, 1:3). The desired serial concentrations of working solutions were achieved by diluting stock solution of analyte with 50% acetonitrile in water solution. 10 μL of working solutions (0.5, 1, 2, 5, 10, 50, 100, 500, 1000, 10000 ng/mL) were added to 10 μL of the blank CD1 mouse plasma/brain homogenate to achieve calibration standards of 0.5-10000 ng/mL (0.5, 1, 2, 5, 10, 50, 100, 500, 1000, 10000 ng/mL) in a total volume of 20 μL. Five quality control samples at 1 ng/mL, 2 ng/mL, 5 ng/mL, 100 ng/mL and 8000 ng/mL for plasma/brain homogenate were prepared independently of those used for the calibration curves. […] After centrifugation at 4° C., 4700 rpm for 15 min, the supernatant was diluted at a ratio of 1:2 with water, and 10 μL of diluted supernatant was injected into the LC/MS/MS system (SCIEX AB API 4000) for quantitative analysis. […]

In data set [2] the target is T1, D3 DAR (Homo sapiens, UniProt P35462). In words: Functional curve-shift assays using the DiscoverX β-arrestin recruitment assay. The arrangement: host or cells: CHO. The format is cell-based. An excerpt:
To further assess the mechanism of action of Cmp. […] 1 (FIGS. 4B and 4D). […] Average curves are shown (mean±SEM from at least 3 experiments each performed in triplicate). […] In contrast, increasing concentrations of Cmp.
1. FIG. 6A-C panels show concentration-response curves of dopamine in the absence or presence of increasing concentrations of compound. Cmp. […] 18 (FIG. 6A), Cmp. 5 (FIG. 6B), and Cmp. 17 (FIG. 6C), respectively. Average curves are shown (mean±SEM from at least 3 experiments, each performed in triplicate).
A D3 DAR β-arrestin cell line from DiscoverX (Fremont, CA) was used as described in the protocol below (Table 2). A CHO cell line engineered to overexpress the D3 DAR fused with a small 42-amino acid fragment of β-galactosidase called ProLink™ and a fusion protein consisting of β-arrestin and a larger N-terminal deletion mutant of β-galactosidase was used (DiscoverX catalogue number 93-0579C2). When the D3 DAR is activated by dopamine, it stimulates binding of β-arrestin to ProLink-tagged D3 DARs, and the two complementary parts of β-galactosidase form a functional enzyme. When substrate (PathHunter® Detection reagent, DiscoverX 93-0001) is added, β-galactosidase hydrolyzes it and generates a chemiluminescent signal.

For data set [3], the target named is T1, D3 DAR. The data set is described as follows: DiscoverX D3 DAR β-arrestin recruitment assay. The format is cell-based. The arrangement: host or cells: CHO. The essentials:
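CHO cells overexpressing D3 DAR fused to a ProLink β-galactosidase fragment plus a β-arrestin–β-galactosidase deletion mutant fusion. Receptor activation drives β-arrestin recruitment and enzyme complementation. Chemiluminescent read-out after detection substrate is added.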

For the next data set, the target named is D2 DAR (Homo sapiens, UniProt P14416). The data set is described as follows: DiscoverX D2 DAR β-arrestin recruitment assay. The format is cell-based. Particulars: EC80 concentration of DA (1 μM). Also noted: host or cells: CHO. In outline: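 CHO cells co-expressing ProLink-tagged D2 DAR and enzyme-acceptor-fused β-arrestin (PathHunter enzyme-fragment complementation). Receptor activation recruits β-arrestin, reconstituting β-galactosidase; detection reagent hydrolysis gives chemiluminescent read-out. Same PathHunter format used for other dopamine receptor subtypes.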
Chain of D2 DAR (P14416 whole entry, the tested form may be a part): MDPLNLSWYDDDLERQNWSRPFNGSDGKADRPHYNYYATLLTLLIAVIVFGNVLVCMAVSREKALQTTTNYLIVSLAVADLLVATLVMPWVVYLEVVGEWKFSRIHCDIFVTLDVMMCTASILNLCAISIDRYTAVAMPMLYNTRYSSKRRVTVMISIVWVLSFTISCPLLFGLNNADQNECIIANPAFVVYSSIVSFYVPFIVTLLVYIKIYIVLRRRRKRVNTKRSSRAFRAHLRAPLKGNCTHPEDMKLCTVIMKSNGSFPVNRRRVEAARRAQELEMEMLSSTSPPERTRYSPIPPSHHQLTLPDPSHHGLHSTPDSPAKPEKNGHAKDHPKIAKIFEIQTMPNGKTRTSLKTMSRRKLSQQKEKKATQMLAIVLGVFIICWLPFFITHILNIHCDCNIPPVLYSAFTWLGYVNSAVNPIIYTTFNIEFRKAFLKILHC
For orientation: Activated receptors often draw arrestin, which recruitment assays turn into a signal.

In data set [4] the target is T1, D3 DAR. The data set is described as follows: Go BRET activation assay, D3 DAR. The format is cell-based. The conditions noted are these: 5 min; EC80 DA (30 nM); read-out: D3 Go BRET Imax. As to the method: Briefly, HEK293T cells transiently expressing either the D2 DAR or D3 DAR and GαoA-Rluc8, untagged-β1, and mVenus-γ2 were harvested with EBSS, plated in 96-well white plates at 20,000 cells/well in DPBS and incubated at RT for 45 min. […] BRET signal was determined by quantifying and calculating the ratio of the light emitted by mVenus (525 nm) over that emitted by RLuc8 (485 nm) using a PHERAstar FSX Microplate Reader (BMG Labtech).
A general note: In BRET a luciferase serves as donor, and the signal depends on an acceptor being close.

A value given as a limit tells only on which side of the number the result lay.

T1 sequence (P35462 whole entry): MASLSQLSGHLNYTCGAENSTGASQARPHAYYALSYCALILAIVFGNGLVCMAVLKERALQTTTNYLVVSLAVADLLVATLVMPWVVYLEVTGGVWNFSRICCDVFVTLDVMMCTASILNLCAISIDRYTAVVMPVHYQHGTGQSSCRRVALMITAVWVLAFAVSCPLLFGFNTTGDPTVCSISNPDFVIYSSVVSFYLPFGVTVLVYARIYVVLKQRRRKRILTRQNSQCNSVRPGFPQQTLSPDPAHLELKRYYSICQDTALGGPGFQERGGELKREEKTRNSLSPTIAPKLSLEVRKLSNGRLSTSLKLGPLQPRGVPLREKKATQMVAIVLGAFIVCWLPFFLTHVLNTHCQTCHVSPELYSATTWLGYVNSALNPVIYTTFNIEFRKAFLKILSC

What is called half-life is the time needed for the level to fall by half in the phase considered. High values mean slow decline, low ones rapid decline. The term IC50 denotes the concentration needed to halve the response being measured. For the compound `Cc1[nH]c(C)c(S(=O)(=O)Nc2ccc(C(F)(F)F)c(Cl)c2)c1C(=O)N1CCC(F)(F)C1` [Cmp. 17, N-(3-chloro-4-(trifluoromethyl)phenyl)-4-(3,3-difluoropyrrolidine-1-carbonyl)-2,5-dimethyl-1H-pyrrole-3-sulfonamide], in data set [1], the brain penetration result is reported as “brain penetrant”. The half-life in data set [1] (mouse, in vivo, ip) was about 4 h. Besides, the IC50 at D3 DAR [2] (agonist dopamine, read-out: Functional IC50 for decreasing the Emax of dopamine) was 1.7 µM; at D3 DAR [3] (EC80 concentration of DA (30 nM), read-out: D3 DAR IC50) it was under 10 µM; on D2 DAR, over 100 µM. Further, the “mode of antagonism in curve-shift assays” value at D3 DAR [2] (versus agonist (dopamine, pramipexole)) was “noncompetitive antagonism”. Further, the Emax at D3 DAR [3] (Imax=maximum inhibition, EC80 DA (30 nM)) is 80 to 100%; at D3 DAR [4], over 100%. The “D2 DAR Imax” value at D2 DAR was “NA (“NA” indicates not active)”.
